Tests used:
[1] = tested on: Lgr5 GFP+ cochlear progenitor cells; experiment: Lgr5+ Assay (Stem Cell Proliferation Assay); type: cell-based
GSK-3 alpha = GSK-3 alpha (Homo sapiens, UniProt P49840); settings: Table 2; cited from earlier work
KDM1 = settings: Table 9, first KDM data cell; read-out: Select KDM1; cited from earlier work
KDM5 = settings: Table 9; read-out: Select KDM5; cited from earlier work
KDM7 = settings: Table 9; read-out: Select KDM7; cited from earlier work
[2] = tested on: Lgr5+ cochlear progenitor cells; experiment: Quantification of Lgr5+ cochlear progenitor cell proliferation, expansion and enrichment (3D Matrigel culture, Celigo imaging, GFP(+) cell area); type: cell-based, mouse
KDM1b = molecular target: T1, KDM1b (Homo sapiens, UniProt Q8NB78); settings: Table 1; read-out: Select KDM1b; cited from earlier work
T1 sequence (Q8NB78 1-822): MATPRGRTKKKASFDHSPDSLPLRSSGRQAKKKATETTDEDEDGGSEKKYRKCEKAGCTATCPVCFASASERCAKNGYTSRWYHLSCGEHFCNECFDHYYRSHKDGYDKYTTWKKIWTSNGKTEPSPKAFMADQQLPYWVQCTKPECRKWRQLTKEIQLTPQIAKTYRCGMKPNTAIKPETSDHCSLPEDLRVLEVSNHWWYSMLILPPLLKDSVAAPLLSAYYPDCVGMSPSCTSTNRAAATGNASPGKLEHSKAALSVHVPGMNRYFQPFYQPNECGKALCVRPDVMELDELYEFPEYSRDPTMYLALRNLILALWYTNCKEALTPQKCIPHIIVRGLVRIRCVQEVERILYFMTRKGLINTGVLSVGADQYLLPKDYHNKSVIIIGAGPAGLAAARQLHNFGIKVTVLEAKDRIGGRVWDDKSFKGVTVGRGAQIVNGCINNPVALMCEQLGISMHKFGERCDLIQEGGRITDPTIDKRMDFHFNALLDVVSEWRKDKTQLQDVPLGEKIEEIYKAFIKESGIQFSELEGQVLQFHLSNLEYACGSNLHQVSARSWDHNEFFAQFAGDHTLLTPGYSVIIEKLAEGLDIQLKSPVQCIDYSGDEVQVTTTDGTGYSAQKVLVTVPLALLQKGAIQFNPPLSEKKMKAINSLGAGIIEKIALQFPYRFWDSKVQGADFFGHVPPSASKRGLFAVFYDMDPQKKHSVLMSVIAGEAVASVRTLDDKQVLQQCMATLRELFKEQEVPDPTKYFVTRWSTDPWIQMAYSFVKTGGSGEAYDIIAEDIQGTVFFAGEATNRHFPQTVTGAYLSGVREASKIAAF

LSD1 = LSD1 (Homo sapiens, UniProt O60341); settings: literature cell potency, LSD1 inhibitors; cited from earlier work
[3] = cited from earlier work
DOT1L = DOT1L (Homo sapiens, UniProt Q8TEK3); settings: literature cell potency, DOT1L inhibitors; cited from earlier work
Chain of DOT1L (Q8TEK3 whole entry, species assumed): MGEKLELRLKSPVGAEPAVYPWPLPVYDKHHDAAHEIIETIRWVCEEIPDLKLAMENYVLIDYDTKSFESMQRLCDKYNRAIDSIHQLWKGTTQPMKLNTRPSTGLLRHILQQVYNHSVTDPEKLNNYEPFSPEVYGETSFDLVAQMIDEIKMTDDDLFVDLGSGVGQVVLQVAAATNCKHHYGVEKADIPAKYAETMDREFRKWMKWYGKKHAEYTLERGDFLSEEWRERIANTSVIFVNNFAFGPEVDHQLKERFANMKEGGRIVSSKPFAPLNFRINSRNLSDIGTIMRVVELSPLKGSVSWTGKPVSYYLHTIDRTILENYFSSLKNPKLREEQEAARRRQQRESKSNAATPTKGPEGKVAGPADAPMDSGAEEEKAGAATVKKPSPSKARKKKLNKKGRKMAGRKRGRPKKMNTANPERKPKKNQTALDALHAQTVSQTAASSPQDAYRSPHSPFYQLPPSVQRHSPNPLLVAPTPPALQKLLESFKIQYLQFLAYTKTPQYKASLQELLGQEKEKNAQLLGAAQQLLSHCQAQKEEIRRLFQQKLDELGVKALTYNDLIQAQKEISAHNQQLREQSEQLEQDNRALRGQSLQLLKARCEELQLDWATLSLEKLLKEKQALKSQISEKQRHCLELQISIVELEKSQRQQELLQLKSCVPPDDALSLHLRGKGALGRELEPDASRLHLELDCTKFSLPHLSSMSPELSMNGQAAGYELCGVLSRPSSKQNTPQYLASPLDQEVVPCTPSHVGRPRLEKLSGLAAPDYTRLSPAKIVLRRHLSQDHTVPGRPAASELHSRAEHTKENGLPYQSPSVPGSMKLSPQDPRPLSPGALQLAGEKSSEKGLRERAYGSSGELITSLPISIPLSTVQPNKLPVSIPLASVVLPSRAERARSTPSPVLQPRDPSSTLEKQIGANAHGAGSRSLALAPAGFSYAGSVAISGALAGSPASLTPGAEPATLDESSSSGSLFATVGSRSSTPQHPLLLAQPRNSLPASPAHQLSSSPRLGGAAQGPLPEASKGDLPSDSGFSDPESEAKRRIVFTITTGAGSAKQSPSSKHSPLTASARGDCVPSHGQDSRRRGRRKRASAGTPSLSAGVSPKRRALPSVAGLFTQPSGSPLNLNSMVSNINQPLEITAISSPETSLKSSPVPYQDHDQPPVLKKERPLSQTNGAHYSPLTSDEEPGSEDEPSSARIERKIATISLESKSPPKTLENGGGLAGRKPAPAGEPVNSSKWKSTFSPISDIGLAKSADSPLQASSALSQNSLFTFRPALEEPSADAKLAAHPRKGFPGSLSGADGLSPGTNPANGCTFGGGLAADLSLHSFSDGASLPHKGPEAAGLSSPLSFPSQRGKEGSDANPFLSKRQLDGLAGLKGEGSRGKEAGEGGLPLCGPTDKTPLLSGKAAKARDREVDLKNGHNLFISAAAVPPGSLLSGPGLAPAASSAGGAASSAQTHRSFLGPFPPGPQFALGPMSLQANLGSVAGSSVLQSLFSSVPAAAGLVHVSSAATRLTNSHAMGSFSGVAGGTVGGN

Chain of GSK-3 alpha (P49840 whole entry): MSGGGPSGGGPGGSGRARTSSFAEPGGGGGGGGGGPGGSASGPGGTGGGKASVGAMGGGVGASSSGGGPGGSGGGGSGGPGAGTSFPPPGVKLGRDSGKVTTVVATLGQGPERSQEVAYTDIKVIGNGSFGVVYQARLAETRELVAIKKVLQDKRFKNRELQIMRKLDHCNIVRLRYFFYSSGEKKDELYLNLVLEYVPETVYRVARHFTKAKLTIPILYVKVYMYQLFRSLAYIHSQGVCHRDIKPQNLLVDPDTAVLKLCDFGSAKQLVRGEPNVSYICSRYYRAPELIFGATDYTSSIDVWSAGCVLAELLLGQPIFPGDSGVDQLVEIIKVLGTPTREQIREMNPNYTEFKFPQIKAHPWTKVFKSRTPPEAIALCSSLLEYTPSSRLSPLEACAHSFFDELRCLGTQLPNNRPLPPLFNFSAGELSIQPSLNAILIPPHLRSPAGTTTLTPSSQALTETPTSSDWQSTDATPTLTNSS

Question: Which “Lgr5+ Assay” value ([1]; Wnt agonists (GSK3 inhibitors), active concentration range) does the source give for `Cc1ccc(C(=O)Nc2c[nH]nc2C(=O)NCCCOC(C)C)cn1` [GSK XX1I] here?
Answer: Its value is 0.2 to 1 µM.

Question: What about the IC50 (GSK-3 alpha) of the same molecule?
Answer: Its IC50 is 2.3 nM.

Question: With `CN1CCN(C(=O)CN[C@@H]2C[C@H]2c2ccc(OCc3ccccc3)cc2)CC1` [Compound 1] as the molecule, how does the IC50 (KDM1) read?
Answer: The IC50 was 220 nM.

Question: And the IC50 (KDM5)?
Answer: Its IC50 is 190 nM.

Question: And the IC50 (KDM7)?
Answer: The IC50 was 220 nM.

Question: What does the source list for `N[C@H]1CC[C@H](N[C@@H]2C[C@H]2c2ccccc2)CC1` [ORY-1001]?
Answer: Lgr5 GFP(+) cell area ([1]; FIG. 6A: 0-30 μM ORY-1001 alone in EFI vs EFI-C, EFI-CV): does not proliferate; Lgr5 GFP(+) cell area percentage ([1]; FIG. 6B: 0-30 μM ORY-1001 alone in EFI vs EFI-C, EFI-CV): does not enrich; Lgr5 GFP(+) cell area ([1]; FIG. 7A: 41 nM ORY-1001 + 4 uM CHIR99021 + 1 mM VPA in EFI vs CHIR+VPA): further enhances Lgr5 GFP+ progenitor cell proliferation; enrichment of Lgr5 GFP+ cells (y-axis: Lgr5 GFP(+) cell area) ([1]; FIG. 7B: 41 nM ORY-1001 + 4 uM CHIR99021 + 1 mM VPA in EFI vs CHIR+VPA): further enhances enrichment; Lgr5+ progenitor cell proliferation and enrichment ([2]; inhibitor 41 nM with CHIR99021 (4 μM) and VPA (1 mM)): enhanced Lgr5+ progenitor cell proliferation and enrichment; proliferation or enrichment of cochlear progenitor cells ([2]; inhibitor alone): does not promote the proliferation or enrichment; IC50 (KDM1b): > 100000 nM; Literat. Cell (LSD1): 0.5 to 3 nM; Human Plasma Conc. ([3]; human plasma, LSD1 inhibitors): 1 to 100 nM

Question: For `CC(C)N(C[C@H]1O[C@@H](n2cnc3c(N)ncnc32)[C@H](O)[C@@H]1O)[C@H]1C[C@@H](CCc2nc3cc(C(C)(C)C)ccc3[nH]2)C1` [pinometostat], which “Human In Vivo Conc” value ([3]; DOT1L inhibitors) is on record?
Answer: The value was “(1-10 uM) μM”.

Question: And the “Human In Vivo Conc: Total plasma Css” value ([3]; total plasma Css)?
Answer: Its value is 800 to 1600 ng/mL.

Question: And the “Human In Vivo Conc: Total plasma Css (molar, in brackets)” value ([3]; total plasma Css)?
Answer: Its value is “(1.42-2.94 uM)”.

Question: And the “Lit Cell” value (DOT1L)?
Answer: Its value is 2.7 nM.
